A value given as a limit tells only on which side of the number the result lay.

The assay deals with Human α2δ-1 subunit of Cav2.2 calcium channel (Homo sapiens, UniProt P54289). As to the kind of experiment: Human α2δ-1 subunit of Cav2.2 calcium channel assay ([3H]-Gabapentin radioligand binding). To be noted: Human α2δ-1 enriched membranes, 15 nM [3H]-Gabapentin, 60 min at 27 °C. The protocol: Human α2δ-1 subunit of Cav2.2 calcium channel assay
Human α2δ-1 subunit of Cav2.2 calcium channel, sequence (P54289 25-1103): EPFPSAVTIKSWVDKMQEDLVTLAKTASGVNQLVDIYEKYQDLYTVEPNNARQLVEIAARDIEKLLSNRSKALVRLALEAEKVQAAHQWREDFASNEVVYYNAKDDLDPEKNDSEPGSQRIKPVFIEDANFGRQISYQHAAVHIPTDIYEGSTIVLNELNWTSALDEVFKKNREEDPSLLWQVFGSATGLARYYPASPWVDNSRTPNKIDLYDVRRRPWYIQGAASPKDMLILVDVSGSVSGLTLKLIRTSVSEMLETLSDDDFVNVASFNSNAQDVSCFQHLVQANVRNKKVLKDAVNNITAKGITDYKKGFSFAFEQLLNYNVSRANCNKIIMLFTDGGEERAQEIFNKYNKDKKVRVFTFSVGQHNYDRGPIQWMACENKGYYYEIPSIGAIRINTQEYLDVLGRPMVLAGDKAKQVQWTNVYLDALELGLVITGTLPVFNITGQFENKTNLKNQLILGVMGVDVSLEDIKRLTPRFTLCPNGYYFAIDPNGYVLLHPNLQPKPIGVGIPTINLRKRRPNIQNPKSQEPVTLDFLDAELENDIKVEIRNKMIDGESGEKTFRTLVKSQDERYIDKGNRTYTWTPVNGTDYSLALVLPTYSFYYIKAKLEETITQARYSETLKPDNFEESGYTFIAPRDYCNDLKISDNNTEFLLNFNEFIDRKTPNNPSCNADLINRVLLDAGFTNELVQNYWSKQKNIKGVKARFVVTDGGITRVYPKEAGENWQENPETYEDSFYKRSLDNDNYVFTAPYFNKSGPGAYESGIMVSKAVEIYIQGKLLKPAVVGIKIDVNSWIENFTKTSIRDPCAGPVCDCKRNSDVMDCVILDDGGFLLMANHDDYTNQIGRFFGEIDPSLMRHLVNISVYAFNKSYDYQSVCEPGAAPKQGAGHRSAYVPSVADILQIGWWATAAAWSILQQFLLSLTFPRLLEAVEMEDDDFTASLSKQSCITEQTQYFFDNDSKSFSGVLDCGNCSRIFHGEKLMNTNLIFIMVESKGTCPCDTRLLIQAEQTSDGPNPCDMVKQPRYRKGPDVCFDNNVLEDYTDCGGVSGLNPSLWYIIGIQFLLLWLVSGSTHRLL
Human α2δ-1 enriched membranes (2.5 µg) were incubated with 15 nM of radiolabeled [3H]-Gabapentin in assay buffer containing Hepes-KOH 10mM, pH 7.4. NSB (non specific binding) was measured by adding 10 µM pregabalin. The binding of the tested compound was measured at either one concentration (% inhibition at 1 or 10 µM) or five different concentrations to determine affinity values (Ki). After 60 min incubation at 27 °C, binding reaction was terminated by filtering through Multiscreen GF/C (Millipore) presoaked in 0.5 % polyethyleneimine in Vacuum Manifold Station, followed by 3 washes with ice-cold filtration buffer containing 50 mM Tris-HCI, pH 7.4. Filter plates were dried at 60 °C for 1 h and 30 µL of scintillation cocktail were added to each well before radioactivity reading. Readings were performed in a Trilux 1450 Microbeta radioactive counter (Perkin Elmer).
As usually defined, the Ki is a measure of affinity in units of concentration, obtained from inhibition or displacement. In the case of `N#Cc1ccc(-c2cn([C@@H]3CN[C@H](C(=O)O)C3)nn2)cc1` [Example 22, (2S,4S)-4-(4-(4-cyanophenyl)-1H-1,2,3-triazol-1-yl)pyrrolidine-2-carboxylic acid], the Ki was at least 5 µM.

Regarding `O=C(O)[C@@H]1C[C@H](n2cc(Cc3cccc(Cl)c3)nn2)CN1` [Example 23, (2S,4S)-4-(4-(3-chlorobenzyl)-1 H-1,2,3-triazol-1-yl)pyrrolidine-2-carboxylic acid], the Ki is at least 5 µM.

Turning to `CNCc1cc(F)cc(-c2cn([C@@H]3CN[C@H](C(=O)O)C3)nn2)c1` [Example 26, (2S,4S)-4-(4-(3-fluoro-5-((methylamino)methyl)phenyl)-1H-1,2,3-triazol-1-yl)pyrrolidine-2-carboxylic acid], the inhibitory constant (Ki) is at least 5 µM.

As to `N#Cc1cccc(-c2cn([C@@H]3CN[C@H](C(=O)O)C3)nn2)c1` [Example 21, (2S,4S)-4-(4-(3-cyanophenyl)-1H-1,2,3-triazol-1-yl)pyrrolidine-2-carboxylic acid], the Ki was at least 5 µM.

For the compound `O=C(O)[C@@H]1C[C@H](n2cc(-c3ccc(Cl)cc3Cl)nn2)CN1` [Example 13, (2S,4S)-4-(4-(2,4-dichlorophenyl)-1H-1,2,3-triazol-1-yl)pyrrolidine-2-carboxylic acid], the inhibitory constant (Ki) was at least 5 µM.

Take `O=C(O)[C@@H]1C[C@H](n2cc(-c3cc(Cl)cc(Cl)c3)nn2)CN1` [Example 27, (2S,4S)-4-(4-(3,5-dichlorophenyl)-1H-1,2,3-triazol-1-yl)pyrrolidine-2-carboxylic acid]: the inhibition constant (Ki) is at least 5 µM.

With “(2S,4S)-4-(4-(4-fluorophenyl)-1 H-1,2,3-triazol-1-yl)pyrrolidine-2-carboxylic acid [Example 5]”, the Ki fell in the range of 0.5 to 5 µM.

As for `O=C(O)[C@@H]1C[C@H](n2cc(-c3ccncc3)nn2)CN1` [Example 19, (2S,4S)-4-(4-(pyridin-4-yl)-1H-1,2,3-triazol-1-yl)pyrrolidine-2-carboxylic acid], the inhibition constant (Ki) was at least 5 µM.

Turning to `COc1ccccc1-c1cn([C@@H]2CN[C@H](C(=O)O)C2)nn1` [Example 3, (2S,4S)-4-(4-(2-methoxyphenyl)-1H-1,2,3-triazol-1-yl)pyrrolidine-2-carboxylic acid], the Ki was at least 5 µM.

For `O=C(O)[C@@H]1C[C@H](n2cc(-c3cc(F)cc(F)c3)nn2)CN1` [Example 15, (2S,4S)-4-(4-(3,5-difluorophenyl)-1H-1,2,3-triazol-1-yl)pyrrolidine-2-carboxylic acid], the Ki was at least 5 µM.

`COc1cccc(-c2cn([C@@H]3CN[C@H](C(=O)O)C3)nn2)c1` [Example 4, (2S,4S)-4-(4-(3-methoxyphenyl)-1H-1,2,3-triazol-1-yl)pyrrolidine-2-carboxylic acid]: the inhibitory constant (Ki) was at least 5 µM.

On to `O=C(O)[C@@H]1C[C@H](n2cc(-c3ccc(Br)cc3)nn2)CN1` [Example 17, (2S,4S)-4-(4-(4-bromophenyl)-1 H-1,2,3-triazol-1-yl)pyrrolidine-2-carboxylic acid], for which the Ki lay within 0.5 to 5 µM.

For `O=C(O)[C@@H]1C[C@H](n2cc(-c3ccccc3Cl)nn2)CN1` [Example 12, (2S,4S)-4-(4-(2-chlorophenyl)-1 H-1,2,3-triazol-1-yl)pyrrolidine-2-carboxylic acid], the inhibition constant Ki lay in the range of 0.5 to 5 µM.

As for `O=C(O)[C@@H]1C[C@H](n2cc(-c3cccc(Br)c3)nn2)CN1` [Example 24, (2S,4S)-4-(4-(3-bromophenyl)-1 H-1,2,3-triazol-1-yl)pyrrolidine-2-carboxylic acid], the inhibitory constant (Ki) was in the range of 0.5 to 5 µM.

With `O=C(O)[C@@H]1C[C@H](n2cc(Cc3ccc(Cl)cc3)nn2)CN1` [Example 30, (2S,4S)-4-(4-(4-chlorobenzyl)-1 H-1,2,3-triazol-1-yl)pyrrolidine-2-carboxylic acid], the inhibitory constant (Ki) is at least 5 µM.

With `O=C(O)[C@@H]1C[C@H](n2cc(-c3cccnc3)nn2)CN1` [Example 18, (2S,4S)-4-(4-(pyridin-3-yl)-1H-1,2,3-triazol-1-yl)pyrrolidine-2-carboxylic acid], the inhibition constant Ki was at least 5 µM.

In the case of `O=C(O)[C@@H]1C[C@H](n2cc(Cc3ccccc3)nn2)CN1` [Example 16, (2S,4S)-4-(4-benzyl-1H-1,2,3-triazol-1-yl)pyrrolidine-2-carboxylic acid], the Ki was at least 5 µM.

`CN(C)Cc1cc(F)cc(-c2cn([C@@H]3CN[C@H](C(=O)O)C3)nn2)c1` [Example 25, (2S,4S)-4-(4-(3-((dimethylamino)methyl)-5-fluorophenyl)-1 H-1,2,3-triazol-1-yl)pyrrolidine-2-carboxylic acid]: the Ki was at least 5 µM.

For the compound `O=C(O)[C@@H]1C[C@H](n2cc(-c3ccc(Cl)c(Cl)c3)nn2)CN1` [Example 14, (2S,4S)-4-(4-(3,4-dichlorophenyl)-1H-1,2,3-triazol-1-yl)pyrrolidine-2-carboxylic acid], the Ki was in the range of 0.5 to 5 µM.

For the compound `O=C(O)[C@@H]1C[C@H](n2cc(-c3cncc(Cl)c3)nn2)CN1` [Example 20, (2S,4S)-4-(4-(5-chloropyridin-3-yl)-1H-1,2,3-triazol-1-yl)pyrrolidine-2-carboxylic acid], the inhibitory constant (Ki) is at least 5 µM.

With `Cc1cccc(-c2cn([C@@H]3CN[C@H](C(=O)O)C3)nn2)c1` [Example 8, (2S,4S)-4-(4-(m-tolyl)-1H-1,2,3-triazol-1-yl)pyrrolidine-2-carboxylic acid], the inhibition constant (Ki) is at least 5 µM.

Regarding `CN(Cc1ccccc1)Cc1cc(F)cc(-c2cn([C@@H]3CN[C@H](C(=O)O)C3)nn2)c1` [Example 28, (2S,4S)-4-(4-(3-((benzyl(methyl)amino)methyl)-5-fluorophenyl)-1H-1,2,3-triazol-1-yl)pyrrolidine-2-carboxylic acid], the inhibition constant (Ki) is at least 5 µM.

`O=C(O)[C@@H]1C[C@H](n2cc(-c3ccc(F)c(F)c3)nn2)CN1` [Example 10, (2S,4S)-4-(4-(3,4-difluorophenyl)-1H-1,2,3-triazol-1-yl)pyrrolidine-2-carboxylic acid]: the Ki is under 0.5 µM.

With `O=C(O)[C@@H]1C[C@H](n2cc(-c3ccccc3)nn2)CN1` [Example 7, (2S,4S)-4-(4-phenyl-1H-1,2,3-triazol-1-yl)pyrrolidine-2-carboxylic acid], the Ki was 0.5 to 5 µM.

Consider `O=C(O)[C@@H]1C[C@H](n2cc(-c3cccc(Cl)c3)nn2)CN1` [Example 2, (2S,4S)-4-(4-(3-chlorophenyl)-1H-1,2,3-triazol-1-yl)pyrrolidine-2-carboxylic acid], for which the inhibitory constant (Ki) was under 0.5 µM.

Consider `O=C(O)[C@@H]1C[C@H](n2cc(-c3cccc(F)c3)nn2)CN1` [Example 1, (2S,4S)-4-(4-(3-Fluorophenyl)-1H-1,2,3-triazol-1-yl)pyrrolidine-2-carboxylic acid], for which the inhibition constant Ki is under 0.5 µM.

Take `COc1ccc(-c2cn([C@@H]3CN[C@H](C(=O)O)C3)nn2)c(Cl)c1` [Example 11, (2S,4S)-4-(4-(2-chloro-4-methoxyphenyl)-1H-1,2,3-triazol-1-yl)pyrrolidine-2-carboxylic acid]: the inhibition constant (Ki) was at least 5 µM.

As for “(2S,4S)-4-(4-(3-((benzylamino)methyl)-5-fluorophenyl)-1H-1,2,3-triazol-1-yl)pyrrolidine-2-carboxylic acid [Example 29]”, the Ki was at least 5 µM.

Take `O=C(O)[C@@H]1C[C@H](n2cc(-c3ccccn3)nn2)CN1` [Example 9, (2S,4S)-4-(4-(pyridin-2-yl)-1H-1,2,3-triazol-1-yl)pyrrolidine-2-carboxylic acid]: the Ki was 0.5 to 5 µM.

Turning to `COc1ccc(-c2cn([C@@H]3CN[C@H](C(=O)O)C3)nn2)cc1` [Example 6, (2S,4S)-4-(4-(4-methoxyphenyl)-1H-1,2,3-triazol-1-yl)pyrrolidine-2-carboxylic acid], the inhibitory constant (Ki) is at least 5 µM.

The values are drawn from patent publication EP3741750A1, “4-(1H-1,2,3-TRIAZOL-1-YL)PYRROLIDINE-2-CARBOXYLIC ACID DERIVATIVES HAVING ACTIVITY AGAINST PAIN” (ESTEVE PHARMACEUTICALS, S.A., priority 2019, dated 2020).
